Data from ChEMBL document CHEMBL3596167, “Branched -d-mannopyranosides: a new class of potent FimH antagonists” (Medchemcomm, 2014).
The source made the active and inactive calls. No cut-off for these calls is given here.

Molecular target: T1, Type 1 fimbrin D-mannose specific adhesin (Escherichia coli K-12, UniProt P08191)
Experiment: Binding affinity to Escherichia coli FimH
Details: not given

T1 sequence (P08191 whole entry): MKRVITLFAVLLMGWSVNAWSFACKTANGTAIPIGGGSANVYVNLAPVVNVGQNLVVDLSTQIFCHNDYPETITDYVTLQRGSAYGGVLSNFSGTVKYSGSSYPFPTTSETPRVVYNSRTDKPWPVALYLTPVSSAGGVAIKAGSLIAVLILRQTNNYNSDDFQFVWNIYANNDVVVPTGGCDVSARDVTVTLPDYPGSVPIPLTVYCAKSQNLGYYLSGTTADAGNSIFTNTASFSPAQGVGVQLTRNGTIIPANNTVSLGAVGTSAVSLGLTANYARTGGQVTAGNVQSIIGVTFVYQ

Structure (SMILES)	Kd [nM]
OCC#Cc1ccc(O[C@H]2O[C@H](CO)[C@@H](O)[C@H](O)[C@@H]2O)cc1	0.65
OC[C@H]1OC(O)[C@@H](O)[C@@H](O)[C@@H]1O (stereo partly drawn) [D-MANNOSE]	2300

Molecular target: T1, Type 1 fimbrin D-mannose specific adhesin
Experiment: Displacement of TM-PAA polymer from Escherichia coli FimH-CRD-Th-6-His expressed in Escherichia coli HM125 by competitive binding assay
Details: not given

Structure (SMILES)	IC50 [nM]
O=C(NCC(CNC(=O)c1ccc2ccccc2c1)O[C@H]1O[C@H](CO)[C@@H](O)[C@H](O)[C@@H]1O)c1ccc2ccccc2c1	763
O=C(NCC(CNC(=O)c1ccc[nH]1)O[C@H]1O[C@H](CO)[C@@H](O)[C@H](O)[C@@H]1O)c1ccc[nH]1	607
COc1ccc2ccc(OCC(CO[C@H]3O[C@H](CO)[C@@H](O)[C@H](O)[C@@H]3O)Oc3ccc4ccc(OC)cc4c3)cc2c1 (some centres not stated)	875
N#Cc1ccc(C(=O)NCC(CNC(=O)c2ccc(C#N)cc2)O[C@H]2O[C@H](CO)[C@@H](O)[C@H](O)[C@@H]2O)cc1	978
CCOCC(COc1ccc2ccccc2c1)O[C@H]1O[C@H](CO)[C@@H](O)[C@H](O)[C@@H]1O (some centres not stated)	746
COc1ccc2ccc(OCC(COc3ccc4ccc(OC)cc4c3)O[C@H]3O[C@H](CO)[C@@H](O)[C@H](O)[C@@H]3O)cc2c1	593
O=[N+]([O-])c1ccc(OCC(COc2ccc([N+](=O)[O-])cc2)O[C@H]2O[C@H](CO)[C@@H](O)[C@H](O)[C@@H]2O)cc1	804
O=C(O)Cc1ccc(OCC(COc2cccc3ccccc23)O[C@H]2O[C@H](CO)[C@@H](O)[C@H](O)[C@@H]2O)cc1 (some centres not stated)	232
O=C(O)c1ccc(OCC(COc2cccc3ccccc23)O[C@H]2O[C@H](CO)[C@@H](O)[C@H](O)[C@@H]2O)cc1 (some centres not stated)	346
COc1ccc(OC(COc2ccc(O)cc2)CO[C@H]2O[C@H](CO)[C@@H](O)[C@H](O)[C@@H]2O)cc1 (some centres not stated)	208
COc1ccc2ccc(OCC(COc3ccc4ccc(C(=O)O)cc4c3)O[C@H]3O[C@H](CO)[C@@H](O)[C@H](O)[C@@H]3O)cc2c1 (some centres not stated)	158
COC(=O)c1ccc2ccc(OCC(COc3ccc4ccc(OC)cc4c3)O[C@H]3O[C@H](CO)[C@@H](O)[C@H](O)[C@@H]3O)cc2c1 (some centres not stated)	212
CCCCCCCO[C@H]1O[C@H](CO)[C@@H](O)[C@H](O)[C@@H]1O	58.9

Test system: not listed separately
Experiment: Solubility of the compound in DMSO at 10 uM
Format: physicochemical
Details: not given

Structure (SMILES)	solubility
O=C(O)Cc1ccc(OCC(COc2cccc3ccccc23)O[C@H]2O[C@H](CO)[C@@H](O)[C@H](O)[C@@H]2O)cc1 (some centres not stated)	soluble
O=C(O)c1ccc(OCC(COc2cccc3ccccc23)O[C@H]2O[C@H](CO)[C@@H](O)[C@H](O)[C@@H]2O)cc1 (some centres not stated)	soluble
COc1ccc2ccc(OCC(COc3ccc4ccc(C(=O)O)cc4c3)O[C@H]3O[C@H](CO)[C@@H](O)[C@H](O)[C@@H]3O)cc2c1 (some centres not stated)	soluble
COC(=O)c1ccc2ccc(OCC(COc3ccc4ccc(OC)cc4c3)O[C@H]3O[C@H](CO)[C@@H](O)[C@H](O)[C@@H]3O)cc2c1 (some centres not stated)	soluble

Test system: HepG2
Experiment: Cytotoxicity against human HepG2 cells at 1 to 10 uM after 24 hrs by CellTiter 96 aqueous one solution cell proliferation assay
Format: cell-based
Details: hepg2, 24 h

Structure (SMILES)	Activity
OC[C@H]1O[C@H](OCC(COc2cccc3ccccc23)Oc2cccc3ccccc23)[C@@H](O)[C@@H](O)[C@@H]1O (some centres not stated)	Non-toxic
COc1ccc2ccc(OCC(CO[C@H]3O[C@H](CO)[C@@H](O)[C@H](O)[C@@H]3O)Oc3ccc4ccc(OC)cc4c3)cc2c1 (some centres not stated)	Non-toxic
CCOCC(COc1ccc2ccccc2c1)O[C@H]1O[C@H](CO)[C@@H](O)[C@H](O)[C@@H]1O (some centres not stated)	Non-toxic
OC[C@H]1O[C@H](OC(COc2ccccc2)COc2ccccc2)[C@@H](O)[C@@H](O)[C@@H]1O	Non-toxic
COc1ccc2ccc(OCC(COc3ccc4ccc(OC)cc4c3)O[C@H]3O[C@H](CO)[C@@H](O)[C@H](O)[C@@H]3O)cc2c1	Non-toxic
O=[N+]([O-])c1ccc(OCC(COc2ccc([N+](=O)[O-])cc2)O[C@H]2O[C@H](CO)[C@@H](O)[C@H](O)[C@@H]2O)cc1	Non-toxic
O=C(O)Cc1ccc(OCC(COc2cccc3ccccc23)O[C@H]2O[C@H](CO)[C@@H](O)[C@H](O)[C@@H]2O)cc1 (some centres not stated)	Non-toxic
OC[C@H]1O[C@H](OCC(COc2ccc3ccccc3c2)Oc2ccc3ccccc3c2)[C@@H](O)[C@@H](O)[C@@H]1O (some centres not stated)	Non-toxic
O=C(O)c1ccc(OCC(COc2cccc3ccccc23)O[C@H]2O[C@H](CO)[C@@H](O)[C@H](O)[C@@H]2O)cc1 (some centres not stated)	Non-toxic
COc1ccc(OC(COc2ccc(O)cc2)CO[C@H]2O[C@H](CO)[C@@H](O)[C@H](O)[C@@H]2O)cc1 (some centres not stated)	Non-toxic
OC[C@H]1O[C@H](OC(COc2cccc3ccccc23)COc2cccc3ccccc23)[C@@H](O)[C@@H](O)[C@@H]1O	Non-toxic
OC[C@H]1O[C@H](OC(COc2ccc3ccccc3c2)COc2ccc3ccccc3c2)[C@@H](O)[C@@H](O)[C@@H]1O	Non-toxic
COc1ccc(OCC(COc2ccc(OC)cc2)O[C@H]2O[C@H](CO)[C@@H](O)[C@H](O)[C@@H]2O)cc1	Non-toxic
COc1ccc2ccc(OCC(COc3ccc4ccc(C(=O)O)cc4c3)O[C@H]3O[C@H](CO)[C@@H](O)[C@H](O)[C@@H]3O)cc2c1 (some centres not stated)	Non-toxic
O=[N+]([O-])c1ccc(OCC(CO[C@H]2O[C@H](CO)[C@@H](O)[C@H](O)[C@@H]2O)Oc2ccc([N+](=O)[O-])cc2)cc1 (some centres not stated)	Non-toxic
COC(=O)c1ccc2ccc(OCC(COc3ccc4ccc(OC)cc4c3)O[C@H]3O[C@H](CO)[C@@H](O)[C@H](O)[C@@H]3O)cc2c1 (some centres not stated)	Non-toxic

Molecular target: Type 1 fimbrin D-mannose specific adhesin (Escherichia coli K-12) (UniProt P08191)
Experiment: Inhibition of Escherichia coli FimH relative to heptyl alpha-D-mannopyranoside
Details: not given

Sequence of Type 1 fimbrin D-mannose specific adhesin (Escherichia coli K-12) (P08191 whole entry): as above

Structure (SMILES)	Ratio
OCC#Cc1ccc(O[C@H]2O[C@H](CO)[C@@H](O)[C@H](O)[C@@H]2O)cc1	7.7

Molecular target: Type 1 fimbrin D-mannose specific adhesin (Escherichia coli K-12) (UniProt P08191)
Experiment: Displacement of TM-PAA polymer from Escherichia coli FimH-CRD-Th-6-His expressed in Escherichia coli HM125 at <1 uM by competitive binding assay
Details: not given

Structure (SMILES)	inhibition
OC[C@H]1O[C@H](OCC(COc2cccc3ccccc23)Oc2cccc3ccccc23)[C@@H](O)[C@@H](O)[C@@H]1O (some centres not stated)	inactive
O=C(Cc1ccccc1)NCC(CNC(=O)Cc1ccccc1)O[C@H]1O[C@H](CO)[C@@H](O)[C@H](O)[C@@H]1O	inactive
OC[C@H]1O[C@H](OCC(COc2ccc3ccccc3c2)Oc2ccc3ccccc3c2)[C@@H](O)[C@@H](O)[C@@H]1O (some centres not stated)	inactive
OC[C@H]1O[C@H](OC(COc2ccc3ccccc3c2)COc2ccc3ccccc3c2)[C@@H](O)[C@@H](O)[C@@H]1O	inactive
COc1ccc(OCC(COc2ccc(OC)cc2)O[C@H]2O[C@H](CO)[C@@H](O)[C@H](O)[C@@H]2O)cc1	inactive
O=C(Cc1ccc([N+](=O)[O-])cc1)NCC(CNC(=O)Cc1ccc([N+](=O)[O-])cc1)O[C@H]1O[C@H](CO)[C@@H](O)[C@H](O)[C@@H]1O	inactive

Molecular target: Type 1 fimbrin D-mannose specific adhesin (Escherichia coli K-12) (UniProt P08191)
Experiment: Displacement of TM-PAA polymer from Escherichia coli FimH-CRD-Th-6-His expressed in Escherichia coli HM125 by competitive binding assay relative to heptyl alpha-D-mannopyranoside
Details: not given

Structure (SMILES)	Ratio
CCOCC(COc1ccc2ccccc2c1)O[C@H]1O[C@H](CO)[C@@H](O)[C@H](O)[C@@H]1O (some centres not stated)	0.08
O=C(O)Cc1ccc(OCC(COc2cccc3ccccc23)O[C@H]2O[C@H](CO)[C@@H](O)[C@H](O)[C@@H]2O)cc1 (some centres not stated)	0.25
O=C(O)c1ccc(OCC(COc2cccc3ccccc23)O[C@H]2O[C@H](CO)[C@@H](O)[C@H](O)[C@@H]2O)cc1 (some centres not stated)	0.17
COc1ccc(OC(COc2ccc(O)cc2)CO[C@H]2O[C@H](CO)[C@@H](O)[C@H](O)[C@@H]2O)cc1 (some centres not stated)	0.28
COc1ccc2ccc(OCC(COc3ccc4ccc(C(=O)O)cc4c3)O[C@H]3O[C@H](CO)[C@@H](O)[C@H](O)[C@@H]3O)cc2c1 (some centres not stated)	0.37
COC(=O)c1ccc2ccc(OCC(COc3ccc4ccc(OC)cc4c3)O[C@H]3O[C@H](CO)[C@@H](O)[C@H](O)[C@@H]3O)cc2c1 (some centres not stated)	0.28

Molecular target: Type 1 fimbrin D-mannose specific adhesin (Escherichia coli K-12) (UniProt P08191)
Experiment: Inhibition of Escherichia coli FimH relative to methyl alpha-D-mannopyranoside
Details: not given

Structure (SMILES)	Ratio
OCC#Cc1ccc(O[C@H]2O[C@H](CO)[C@@H](O)[C@H](O)[C@@H]2O)cc1	3380
O=[N+]([O-])c1ccc(O[C@H]2O[C@H](CO)[C@@H](O)[C@H](O)[C@@H]2O)c(Cl)c1	717
CCOc1c(Nc2ccc(O[C@H]3O[C@H](CO)[C@@H](O)[C@H](O)[C@@H]3O)c(Cl)c2)c(=O)c1=O	6900
O=[N+]([O-])c1ccc(CCO[C@H]2O[C@H](CO)[C@@H](O)[C@H](O)[C@@H]2O)cc1	85
